# Measured values as given in patent US7666414B2, “Methods for treating prostate cancer using modified antibodies to prostate-specific membrane antigen” (Cornell Research Foundation, Inc., priority 2001, dated 2010).
# Like-named read-outs stand apart in the source and are kept apart here.
# Experiments:
# LNCaP cells = experiment: Immunoreactivity by the method of Lindmo; parameters: species or system human; settings: 111In labeled, binding extrapolated to infinite antigen excess
# Method: The solutions were incubated at 4° C. for 60 minutes prior to being isolated (by centrifugation) and washed with ice cold PBS. The membranes were then counted in a gamma counter with standards representing the total radioactivity added. The data was plotted using the Lindmo method as the reciprocal of the substrate concentration α-axis) against the reciprocal of the fraction bound (y-axis). The data was then fitted according to a least squares linear regression method (Sigma Plot) and the y intercept taken as the reciprocal of the immunoreactivity. A similar method using membranes derived from LNCaP cells, and subsequent centrifugation isolation of the membranes, gave similar results. The results gave an average immunoreactivity of 72% (see Table 11).
# Briefly five test solutions were prepared (in duplicate) containing 10,000 cpm of ^111Indium labeled-DOTA-deJ591 and various amounts of LNCaP cells or cell membranes, in a total test volume of 250 μL of 0.2% BSA 10 mM HEPES. The solutions were incubated at 4° C. for 60 minutes prior to being isolated (by centrifugation) and washed with ice cold PBS. The membranes were then counted in a gamma counter with standards representing the total radioactivity added. The data was plotted using the Lindmo method as the reciprocal of the substrate concentration α-axis) against the reciprocal of the fraction bound (y-axis). The data was then fitted according to a least squares linear regression method (Sigma Plot) and the y intercept used as the reciprocal of the immunoreactivity. The target for immunoreactivity was not less than 75%.
# prostate tissue = experiment: Immunohistochemistry of DOTA conjugated deJ591
# Method: Immunohistochemistry was performed on the DOTA conjugated, partially purified, bulk intermediate deJ591.
# [1] = molecular target: prostate specific membrane antigen (Homo sapiens, UniProt Q04609); experiment: Competitive binding sites on PSMA; settings: relative to J591, J533, E99 site
# Chain of prostate specific membrane antigen (Q04609 whole entry): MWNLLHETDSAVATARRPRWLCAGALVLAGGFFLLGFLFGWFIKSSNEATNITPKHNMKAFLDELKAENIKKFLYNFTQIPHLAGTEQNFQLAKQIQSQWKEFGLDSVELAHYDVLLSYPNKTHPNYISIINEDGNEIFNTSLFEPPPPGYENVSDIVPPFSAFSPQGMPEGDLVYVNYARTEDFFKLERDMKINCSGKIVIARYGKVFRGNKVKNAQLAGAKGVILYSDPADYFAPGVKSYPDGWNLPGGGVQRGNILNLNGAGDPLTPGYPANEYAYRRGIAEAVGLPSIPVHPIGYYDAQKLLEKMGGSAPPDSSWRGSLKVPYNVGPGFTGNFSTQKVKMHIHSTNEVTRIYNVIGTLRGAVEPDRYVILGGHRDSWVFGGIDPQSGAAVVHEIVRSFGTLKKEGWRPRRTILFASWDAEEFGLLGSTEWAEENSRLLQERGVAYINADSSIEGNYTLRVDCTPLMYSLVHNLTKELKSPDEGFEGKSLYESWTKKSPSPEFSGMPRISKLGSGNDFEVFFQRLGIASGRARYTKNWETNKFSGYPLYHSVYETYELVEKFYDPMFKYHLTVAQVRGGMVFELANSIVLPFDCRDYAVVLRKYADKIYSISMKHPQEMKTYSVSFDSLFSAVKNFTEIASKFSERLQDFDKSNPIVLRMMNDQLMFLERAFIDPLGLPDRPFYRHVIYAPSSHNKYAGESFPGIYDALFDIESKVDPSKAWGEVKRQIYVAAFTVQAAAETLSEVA
# Text: To kill or ablate normal, benign hyperplastic, and cancerous prostate epithelial cells, a first antibody, e.g., a modified antibody, can be conjugated with a prodrug which is activated only when in close proximity with a prodrug activator. The prodrug activator is conjugated with a second antibody, e.g., a second modified antibody according to the present invention, preferably one that binds to a non-competing site on the prostate specific membrane antigen molecule. Whether two modified antibodies bind to competing or non-competing binding sites can be determined by conventional competitive binding assays. […] Monoclonal antibody J415, on the other hand, binds to a binding site that is non-competing with the site to which J591, J533, and E99 bind. Thus, for example, the first modified antibody can be one of J591, J533, and E99, and the second modified antibody can be J415. Alternatively, the first modified antibody can be J415, and the second modified antibody can be one of J591, J533, and E99. Drug-prodrug pairs suitable for use in the practice of the present invention are described in Blakely et al., “ZD2767, an Improved System for Antibody-directed Enzyme Prodrug Therapy That Results in Tumor Regressions in Colorectal Tumor Xenografts,” (1996) Cancer Research, 56:3287-3292, which is hereby incorporated by reference.
# [2] = system: vascular endothelium of solid tumors; experiment: Phase I trial of 111In-DOTA-deJ591 in refractory solid tumor malignancies; format: in vivo; settings: for Plasma clearance (T1/2): human
# Text: Eligible patients were those with refractory solid tumor malignancies whose tumor types are known to express PSMA on the neovasculature.
# Patients the participated in the study included eight renal cell cancer patients, four bladder cancer patients, two colon cancer patients, and one pancreas cancer patient.
# [3] = system: hormone refractory prostate cancer; format: in vivo, human
# Text: All patients had rising PSA levels on three consecutive measurements.
# [4] = system: recurrent, progressing prostate cancer; experiment: Phase I trial of 111In-DOTA-deJ591, four weekly doses; format: in vivo, human
# Method: Patients with recurrent, progressing prostate cancer received four weekly doses of ^111In-DOTA-deJ591. Doses were escalated in cohorts of three patients and ranged from 62.5-500 mg/m2 (total). […] After the first dose, patients were imaged on the day of injection (day 0) and days 1, 2, 4 and 7.
# Serum PK, immune reaction and toxicity were evaluated after each dose for a minimum of 12 weeks.
# prostate cancer = settings: in vivo
# Method: A single patient was treated with mAb deJ591. This patient had bulky, poorly differentiated prostate cancer and had failed multiple courses of external beam radiotherapy as well as multiple forms of hormonal and non-hormonal chemotherapy. […] Four doses (#1, 3, 6 and 11) were trace-radiolabeled with either ^131Iodine or ^111Indium for pharmacokinetic determinations and biodistribution. The mean effective serum residence time of ^131I-deJ591 ranged from 31.9 to 51.3 hours, depending on the dose. Tumor localization to known tumor sites was excellent after each of the radiolabeled doses over the five month period. Dose twelve was radiolabeled with a therapeutic quantity of ^90Yttrium (19mCi) calculated to deliver less than a 150 rad dose to the blood. This dose was determined in consultation with the FDA and took into account prior radiotherapy delivered by external beam and by 131 Iodine. […] The patient's platelet count dropped to 64,000 (normal: 150,000-300,000) at five weeks post ^90Y-DOTA-deJ591 administration (as an anticipated result of radiation to the bone marrow) prior to spontaneously returning to normal levels. […] The patient experienced no side effects. The patient's PSA declined from 63 at the time of deJ591-DOTA-9Y administration to 36. […] This patient succumbed to their metastatic prostate cancer ten and one-half months after initiating treatment with ^90Y-DOTA-deJ591.
# [5] = system: PSMA-positive CWR22 xenografts; experiment: Efficacy in PSMA-positive CWR22 xenografts; format: in vivo, C.B-17 scid mice
# Method: Experiment: Male SCID mice were implanted by serial passage of CWR22 prostate tumor xenograft. […] All treatments were given intravenously. Tumor growth and animal health were continually monitored throughout the study with tumor growth measured every 3 days.
# Experiment: Male C.B-17 SCID mice bearing CWR22 xenografts approximately 200 mm^3 in size received IV injections (200 μL constant volume) of the test articles according to the dose and schedule as shown in Table 22.
# Male C.B-17 scid mice bearing CWR22 xenografts approximately 200 mm^3 in size received IV injections (200 μL constant volume) of the test articles according to the dose and schedule shown in the Table 23.
# The objective of this study was to determine how much the dosing interval could be increased at this dosage before a loss of efficacy in terms of TGD would be observed. […] The growth delays for the other schedules were: q7d, 53.0 days; q21d, 48.0 days; and q28d, 26.9 days. Similar to other studies using the CWR22 xenograft model, no curative responses were observed, with all tumors eventually resuming growth (FIG. 18).
# Experiment: Male SCID mice were implanted by serial passage of CWR22 prostate tumor xenograft. […] All treatments were given intravenously and on a schedule of every three days for 5 doses. Tumor growth and animal health were continually monitored throughout the study with tumor growth measured every 3 days.
# Experiment: Male SCID mice were implanted by serial passage of CWR22 prostate tumor xenograft. […] All treatments were given intravenously and on a schedule of every seven days for 5 doses. Tumor growth and animal health were continually monitored throughout the study with tumor growth measured every 3 days.
# [6] = system: recurrent prostate cancer; experiment: Phase II trial of deJ591 with low-dose subcutaneous IL-2; format: in vivo, human; settings: in combination with daily low-dose subcutaneous IL-2; six patients entered
# Method: Patients receive daily low-dose subcutaneous rIL-2 (1.2×10^6 IU/m^2/day) on day 1 through day 56. […] IL-2 administration is continued during this period another two weeks afterwards. This 8-week regimen constitutes one cycle of therapy. Patients are evaluated for response at the end of one cycle. Patients who have responded to therapy or have stable disease are eligible for additional cycles of therapy. Additional cycles will be initiated when there is at least two consecutive rises in PSA at least 2 weeks apart. […] The dose of antibody will be adjusted based on additional data analysis of patients treated in this manner.
# [7] = system: PSMA-positive human LNCaP tumors; parameters: species or system nude mice; settings: mouse, in vivo
# Method: (§1) Prior to use, the cells were trypsinized, counted and suspended in Matrigel (Collaborative Biomedical Products, Bedford, Mass.). Nu/Nu Balb C mice 8-10 weeks of age were inoculated, in the right and left flanks, with a suspension of 5×10^6 LNCaP cells in Matrigel (BD Biosciences, Bedford Mass.). After a period of 14-18 days, tumors (100-300 mg) had developed. The PSMA-negative DU145 and PC3 cells were implanted in nude mice in an identical manner.
# (§2) The PSMA-positive and PSMA-negative tumor bearing mice were injected, via the tail vein, with 80 KBq of the iodinated MAb (400 MBq/mg) in 200 μL of PBS (pH 7.4, 0.2% BSA). Groups of animals (3-8/group) were sacrificed after 2, 4 or 6 days. The major organs and tumors were recovered. The tissue samples were weighed and counted, with appropriate standards in an automatic NaI(Tl) counter. These measured relative activity data (cpm) were background corrected and expressed as a percentage of the injected dose per gram (% ID/g). […] J415, J591 and 7E11 were labeled with ^111In (100 MBq/mg). 80 KBq of the ^111In labeled MAbs were injected in groups of animals. The % ID/g in various organs and tumor tissues was determined at 2-6 days post injection in a similar way as described for ^131I labeled MAbs.
# For the imaging studies, animals were injected with 2 MBq of ^111In-DOTA-J591. […]
# [8] = system: hormone-refractory prostate cancer metastases; experiment: Nuclear imaging with 111In or 177Lu labeled deJ591 versus standard imaging; format: in vivo, human
# Method: The antibody scans were compared to standard imaging studies (bone, CT or MR scans) obtained on each patient to assess the underlying sensitivity, specificity, and accuracy of deJ591 targeting to metastatic sites. Bony and soft tissue metastases were evaluated independently.
# [9] = system: PSMA-positive human LNCaP tumors; experiment: Biodistribution of 131I labeled MAbs in nude mice bearing LNCaP tumors; settings: mouse, in vivo
# Method: as §1, §2
# [10] = four weekly doses, 62.5-500 mg/m2 total
substance,measurement,setting,value
DOTA conjugated deJ591,Immunoreactivity,LNCaP cells,95%
same,Immunoreactivity,LNCaP cells; listed as Lot 243101,95%
same,Immunoreactivity,LNCaP cells; listed as Lot BIOV983.2-2,72%
same,Immunohistochemistry specificity and reactivity,prostate tissue,specific to prostate tissue and the reactivity was equivalent to the naked deJ591 antibody
"J591: murine monoclonal antibody to the extracellular domain of human PSMA, hybridoma ATCC HB-12126",binding site on the prostate specific membrane antigen molecule,[1],bind to competing binding sites
^111In-DOTA-deJ591,tumor targeting,"[2]; 7 renal cell, 2 bladder, 1 colon cancer",ten of the fifteen patients
same,decline in CEA,[2]; a colon cancer patient,50%
same,false negative imaging,[2]; in vivo,five of the fifteen patients
same,objective responses,[2]; in vivo,No objective responses occurred
same,Immunoreactivity,LNCaP cells,72%
same,false negative imaging in patients who had imagable disease,[3]; four of twenty-two,18%
same,Plasma clearance (T1/2),"[3]; human, in vivo, 20 mg",34 ± 5 h
same,tumor targeting in patients who had imagable disease,"[3]; sixteen of twenty-two, 20 mg, 185 MBq",72.7%
same,immune reaction to the antibody,[4]; [10],None of the patients developed an immune reaction to the antibody
same,toxicity or side effects,[4]; [10],Neither this latter patient nor the remaining thirteen patients experienced any toxicity or side effects
same,mAb targeting to bony sites,[4]; ten patients with positive bone scans,all ten demonstrated excellent mAb targeting to bony sites
same,mAb targeting to soft tissue disease,[4]; three patients with soft tissue disease on CT,two demonstrated mAb targeting to these sites
"deJ591: deimmunized form of murine anti-PSMA antibody J591, human IgG1/kappa constant regions, NS0 cell line ATCC PTA-3709",Liver uptake,[2]; 5 mg,28%+/−14
same,Liver uptake,[2]; 10 mg,17%+/−7
same,Liver uptake,[2]; 20 mg,13%+/−5
same,Plasma clearance (T1/2),"[2]; in vivo, 5 mg",21 ± 11 h
same,Plasma clearance (T1/2),"[2]; in vivo, 10 mg",24 ± 6 h
same,Plasma clearance (T1/2),"[2]; in vivo, 20 mg",37 ± 8 h
same,human anti-deimmunized antibody (immune) response,prostate cancer,No detectable human anti-deimmunized antibody (immune) response developed
same,Tumor Growth Delay,"[5]; Comparison II, 12.96 mg/kg, q3dX5",1.9 days
same,effect on CWR22 xenograft tumor growth,"[5]; every three days for 5 doses, IV, equimolar to 14.5 mg/kg deJ591-DM1",no significant effect
same,Toxicities,[6],expected and minor
same,blood activity,[7],2.52±0.16 % ID/g
same,patients with soft tissue masses accurately targeted,[8]; eight out of nine,89%
same,patients without documented soft tissue metastases with negative mAb scans,[8]; fifteen patients,100%
same,"specificity, negative bone scans negative on the deJ591 scan",[8]; seven patients,100%
same,concordance between standard imaging and mAb scans,[8]; soft tissue and bony metastases,91%
same,patients with bone metastases on bone scan accurately targeted,[8]; twelve of fifteen,80%
same,blood activity,[9],significantly lower compared to that of 7E11
same,tumor uptake,[9],8.55±1.29 % injected dose/gram
